A word on the IC50: it is the concentration that inhibits the measured activity by half.

The test system of one assay is KB. The experiment in a line: Antiproliferative activity against human KB cells. The format is functional, cell-based.
Assay [1] can be described thus: Antiproliferative activity against endothelial cells. Format: cell-based. As to conditions: Endothelial cell.
Assay [2] relates to A2780. The experiment in a line: Ratio of IC50 for endothelial cells to IC50 for human A2780 cells.
In assay [3] the test system is A2780. The experiment in a line: Antiproliferative activity against human A2780 cells. Format: functional, cell-based.
For assay [4], the system named is P388. Kind of assay: Ratio of IC50 for mouse P388 cells to IC50 for human A2780 cells. The format is functional.
Assay [5] has as its system A2780. Kind of assay: Ratio of IC50 for human KB cells to IC50 for human A2780 cells. Format: functional.
Assay [6] has as its system P388. The experiment in a line: Antiproliferative activity against mouse P388 cells. Format: functional, cell-based.

With `C/C=C/C(O)C/C=C/C[C@H](C)[C@@H](O)CC(=O)NC[C@H](O)[C@H](C)C(=O)NCCC[C@H]1O[C@@]2(CCC[C@@H](CC[C@H](C)/C=C(\C)C(C)=O)O2)CC[C@@H]1C` (some centres undefined), the half-inhibitory concentration (IC50) in the assay with KB came out at 45 nM; in assay [1], 22 nM; in the assay with A2780 [3] it was 340 nM; with P388 [6], 20 nM. In addition, the “Ratio IC50” value in the assay on A2780 [2], with P388 [4] and in the assay with A2780 [5] was 10 throughout.

Regarding `C/C=C/C(=O)C[C@H]1CC[C@H](C)[C@H](CC(=O)NC[C@H](O)[C@H](C)C(=O)NCCC[C@H]2O[C@@]3(CCC[C@H](CC[C@H](C)/C=C(\C)[C@H](C)O)O3)CC[C@@H]2C)O1` [BISTRAMIDE A], the IC50 with KB worked out at 45 nM; in assay [1], 22 nM; with A2780 [3] it was 260 nM; with P388 [6], 20 nM. Further, the “Ratio IC50” value in the assay with A2780 [2], in the assay with P388 [4] and in the assay on A2780 [5] was 10 in each case.

(Values after ChEMBL document CHEMBL1152394, “Antiproliferative bistramides from Trididemnum cyclops from Madagascar (1)” (J Nat Prod, 2009).)
